From patent US20140206735A1, “HIGH DOSAGE TOPICAL METRONIDAZOLE AQUEOUS-BASED GEL FORMULATIONS AND THEIR USE TO TREAT ROSACEA” (Medicis Pharmaceutical Corporation, priority 2012, published 2014)

Assay: Saturated MTZ solubility at 25° C. in solvents and solvent mixtures
Assay type: physicochemical
[1] = MTZ in Phosphate buffer, 50 mM, pH 4
[2] = MTZ in Phosphate buffer, 50 mM, pH 6

Compound: Cc1ncc([N+](=O)[O-])n1CCO [MTZ, 2-(2-methyl-5-nitro-1H-imidazol-1-yl)ethanol]
- Solubility at 25° C. (n = 3, mean ± SEM) (MTZ in 1 wt % aq. polysorbate 60): 9.72 ± 0.08 mg/g
- Solubility at 25° C. (n = 3, mean ± SEM) (MTZ in 2 wt % aq. Benzyl alcohol): 10.81 ± 0.040 mg/g
- Solubility at 25° C. (n = 3, mean ± SEM) (MTZ in 10 wt % aq. Lutrol F127): 9.15 ± 0.09 mg/g
- Solubility at 25° C. (n = 3, mean ± SEM) (MTZ in 50 wt % aq. glycerol): 7.62 ± 0.19 mg/g
- Solubility at 25° C. (n = 3, mean ± SEM) (MTZ in Deionized water): 8.70 ± 0.09 mg/g
- Solubility at 25° C. (n = 1) (MTZ in Ethanol): 19.96 mg/g
- Solubility at 25° C. (n = 3, mean ± SEM) (MTZ in Ethanol): 16.36 ± 0.12 mg/g
- Solubility at 25° C. (n = 1) (MTZ in Ethylene glycol): 21.34 mg/g
- Solubility at 25° C. (n = 1) (MTZ in Glycerol): 8.35 mg/g
- Solubility at 25° C. (n = 1) (MTZ in PEG 400): 24.78 mg/g
- Solubility at 25° C. (n = 3, mean ± SEM) (MTZ in PEG 400): 18.79 ± 1.23 mg/g
- Solubility at 25° C. (n = 1) [1]: 9.09 mg/g
- Solubility at 25° C. (n = 3, mean ± SEM) [1]: 8.26 ± 0.45 mg/g
- Solubility at 25° C. (n = 1) (MTZ in Phosphate buffer, 50 mM, pH 5): 9.13 mg/g
- Solubility at 25° C. (n = 1) [2]: 9.10 mg/g
- Solubility at 25° C. (n = 3, mean ± SEM) [2]: 8.57 ± 0.05 mg/g
- Solubility at 25° C. (n = 1) (MTZ in Phosphate buffer, 50 mM, pH 7): 9.07 mg/g
- Solubility at 25° C. (n = 1) (MTZ in Propylene glycol): 20.74 mg/g
- Solubility at 25° C. (n = 3, mean ± SEM) (MTZ in Propylene glycol): 18.62 ± 0.25 mg/g
- Solubility at 25° C. (n = 1) (MTZ in tetraglycol): 29.65 mg/g
- saturated MTZ solubility at 25° C. (in certain alcohols (ethanol, benzyl alcohol), diols (ethylene glycol, propylene glycol), polyethers (PEG 400)): at least 20 mg/g
